Experimental data from patent US12076310B2, “Compounds and methods for the treatment of acute myelogenous leukemia” (University of Rochester, priority 2021, dated 2024).
Entries after “also recorded” stand apart in the source; their conditions may differ.

Assays:
primary AML cells = test: Clonogenicity of primary AML cells in MethoCult; format: cell-based, human
Protocol: Effect of UR778Br on clonogenicity of primary AML cells: Vials of primary AML cells cryopreserved in liquid nitrogen were thawed rapidly in a 37° C. water bath. The contents, generally one ml, were transferred to a 15 ml conical tube, one tenth the volume of DNase was added (bovine pancreas deoxyribonuclease, Sigma Aldrich D4263-5VL), it was mixed gently and incubated in a 37° C. water bath for 90 seconds. 9 ml of DMEM with 2% FBS was added dropwise and mixed gently. Samples were then centrifuged for 5 to 6 minutes, aspirated and the supernatant discarded. 70 μl of DNase were added and mixed gently. 10 ml of DMEM with 2% FBS was added slowly to resuspend and then the sample was centrifuged for 5 to 6 minutes. Supernatant was discarded, 50 μl of DNase was added, sample was mixed gently and the pellet was resuspended in 5 ml of IMDM+10% FBS, L-glutamine 2 mM (GIBCO) and penicillin and streptomycin (50 units and 50 mcg/ml). The cells were counted in a hemocytometer with viability estimated by Trypan blue dye exclusion.
The cell suspension was then added to MethoCult Enriched H4435 (Stem Cell Technologies, catalog number 04435) to achieve a final concentration between 5×10^4 to 2×10^5/ml. DMSO, UR778Br or cytarabine were added to achieve indicated concentrations. […] The plates were incubated 37° C., 5% CO2 incubator and colonies were counted at 7, 14 and 21 days. […]

[1] = test system: MOLM13, MV411, THP1 and U937 cells; test: Cell cycle analysis by flow cytometry; format: cell-based, human; conditions: range of concentrations, 24 hours
Protocol: Cell cycle analysis: For cell cycle analysis, Leukemia cell lines were washed with 1× phosphate buffered saline (PBS Mediatech, Inc., Manassas, VA, USA) and centrifuged at 1200 rpm for 8 minutes. Cell pellet was re-suspended in 100 microliters of Cytofix/Cytoperm™ (BD Biosciences, Cat No. 554722) buffer for at room temperature (RT) for 15 minutes. Cell suspension washed with 1×PBS and centrifuged at 1200 rpm for 8 minutes and re-suspended in 1 ml of culture media containing 1 μl of Vybrant® DyeCycler™ Violet Stain (ThermoFisher Scientific, Cat No. V35003). Cell suspensions were incubated at 37° C. in a 5% CO2 incubator for least 30 minutes. Cell suspensions were analyzed using a LSRII™ flow cytometer (BD Biosciences, San Jose, CA, USA). A minimum of 8,000 cells were included in the analysis of each sample. Data were analyzed by FlowJo software (Tree Star, Ashland, OR, USA) and collected on linear scale for forward and side scatter (i.e., FSC and SSC, respectively) and on a linear scale for violet fluorescence channel […].

[2] = test system: MOLM13, MV411, THP1 and U937 cells; test: Proliferation of cell lines by counting cells in a hemocytometer; format: cell-based, human; conditions: range of concentrations, 72 hours
Protocol: Effect of UR778Br on proliferation of cell lines: Proliferation of MOLM13, MV411, THP1 and U937 cells was measured by counting cells in a hemocytometer. Briefly, cells were seeded at 20,000 to 40,000 cells/well in triplicate wells of a 96 well plate and treated with a range of UR778Br doses and incubated at 37° C. with 5% CO2 in a humidified incubator. Cell counts were determined at 24-, 48- and 72 hours.

normal bone marrow cells = test: Colony formation by normal bone marrow in MethoCult; format: cell-based, human
Protocol: Effect of UR778Br on colony formation by normal bone marrow: Vials of cryopreserved aliquots were thawed the in a 37° C. water bath. Nine ml of RPMI with 2% FBS were added dropwise to the cells in 1 ml of freezing media, centrifuged at 1000 rpm for 5 min and re-suspended in 5 ml of RPMI. The cells were counted in a hemocytometer and viability estimated by Trypan blue dye exclusion. The cells were added to MethoCult H4435 Enriched (Stem Cell Technologies, catalog number 04435) to achieve concentrations of 5×10^4 to 1×10^5 viable cells/ml. UR778Br was added at indicated concentrations. The mixture was vortexed and allowed to settle. Each condition was dispersed in triplicate or quadruplicate. The plates were incubated at 37° C. with 5% CO2 in a humidified incubator and colonies were counted at 7, 14 and 21 days. Images of colony forming unit assays were acquired using the Celligo imaging cytometer (Nexcelom Biosciences) at a resolution of 1 pixel/μm. Celligo instrument software was used for image processing.

leukemia cell lines = test: Screening of hits and structural analogs for effects on proliferation of leukemia cell lines; format: cell-based, human; conditions: dose range tested; data not shown
IQGAP1 = IQGAP1 expression in MOLM13 cells (immunoblot); format: cell-based, human; conditions: 25 μM, 24 hours
primary human AML cells = test: Viability of primary AML cells (annexin-V/DAPI flow cytometry); format: cell-based; conditions: dose range, 48 hours
Protocol: Effect of UR778Br on apoptosis in primary AML cells: Primary AML cells were treated with DMSO or varying concentrations of UR778Br and cytarabine 5 μM and cultured in a 37° C., 5% CO2 incubator for 24 and 48 hours. The cells were stained for 15 min in annexin-V binding buffer (10 mM HEPES/NaOH, pH 7.4, 140 mM NaCl, 2.5 mM CaCl2)) containing annexin-V-APC antibody (BD Biosciences) and DAPI (Sigma). Stained cells were analyzed immediately on using a LSRII™ flow cytometer (BD Biosciences, San Jose, CA, USA).
Effect of UR778Br on viability of primary human AML cells: Vials of primary AML cells cryopreserved in liquid nitrogen were thawed rapidly in a 37° C. water bath. The contents, generally one ml, were transferred to a 15 ml conical tube, one tenth the volume of DNase was added (bovine pancreas deoxyribonuclease, Sigma Aldrich D4263-5VL), it was mixed gently and incubated in a 37° C. water bath for 90 seconds. 9 ml of DMEM with 2% FBS was added dropwise and mixed gently. Samples were then centrifuged for 5 to 6 minutes, aspirated and the supernatant discarded. […] The cells were counted in a hemocytometer with viability estimated by Trypan blue dye exclusion.
Primary cells were cultured in 37° C., 5% CO2 incubator. […] Stained cells were analyzed immediately on BD FACS Celesta, flow cytometer (BD Biosciences). Viable cells were scored as annexin-V and DAPI double negative cells.

[3] = test system: MOLM13, MV411, THP1 and U937; test: Viability of cell lines by the MTS assay; format: cell-based, human; conditions: range of concentrations, 48 hours
Protocol: Effect of UR778Br on viability of cell lines: Viability of MOLM13, MV411, THIP1 and U937 was determined by the MTS assay. Briefly, 20,000 to 40,000 cells/well were seeded in triplicate wells of a 96 well plate and treated with a range of UR778Br doses and incubated for 48 to 72 hours at 37° C. with 5% CO2 in a humidified incubator. Cell Titre96R Aqueous One Solution Cell Proliferation Assay reagent (Promega Corp., catalog number: G3580) diluted 1-10 in complete RPMI medium was added and cells were incubated for 4 hours. The optical density (OD) values were read at 490 nm wavelength using BioRad iMark microplate reader. Experiments were performed in triplicates; data are expressed as the mean of the triplicate determinations (X±SD) of a representative experiment in % of absorbance by samples with untreated cells [=100%].

[4] = test system: MOLM13, MV411, THP1 and U937; test: Colony formation of leukemia cell lines in MethoCult; format: cell-based, human; conditions: 6.25 μM
Protocol: Effect of UR778Br on colony formation cell lines: MOLM13, MV411, THP1 and U937 were added to MethoCult H4435 Enriched (Stem Cell Technologies, catalog number 04435) to achieve concentration of 2000 cells/ml, 500 cells/ml and 200 cells/ml. UR778br was added to achieve a range of concentrations. Each condition was done in triplicate. The plates were incubated at 37° C. with 5% CO2 in a humidified incubator Colonies were counted at 7, 14 and 21 days.

[5] = test system: MOLM13, MV411, THP1 and U937 cells; test: Apoptosis by Western blot of cleaved PARP; format: cell-based, human; conditions: 25 μM, 24 hours
Protocol: For measurement of apoptosis by Western blot the MOLM13, MV41, THP1 and U937 cells treated with UR778Br for 24 hours were lysed and expression of cleaved PARP, an indicator of apoptosis, was measured as described above.

## CCCCN1C(=O)C(O)(CC(=O)c2ccccc2O)c2cc(Br)ccc21 (stereo not shown) [UR778Br]
Primary AML cells; concentrations as low as 6.25 μM
  colony formation by three primary AML cells: blocks colony formation
Primary AML cells; varying concentrations
  colony formation units of primary AML cells: inhibition of the colony formation units
[1]
  cell cycle arrest: cell cycle arrest in the G2M phase in a dose-dependent manner; also recorded: dose-dependent arrest in G2/M phase of the cell cycle
[2]
  proliferation: dose dependent reduction of proliferation
Normal bone marrow cells; 6.25 μM
  colony formation by normal bone marrow: did not inhibit colony formation by normal bone marrow; also recorded: majority of normal bone marrow samples do not exhibit reduced colony formation
Normal bone marrow cells; 12.5 μM compared with 6.25 μM
  colony formation by normal primary bone marrow cells: inhibition of the colony formation units to a greater degree than at 6.25 μM concentration
Leukemia cell lines
  inhibition of proliferation of leukemia cells (anti-proliferative activity): most potent structural analog of AK778
IQGAP1
  expression of IQGAP1: decreased expression of IQGAP1
Primary human AML cells
  viability (annexin-V and DAPI double negative cells): dose dependent decrease in viability
[3]
  viability: decreased viability in AML cell lines in a dose-dependent fashion; also recorded: dose-dependent decrease in viability
[4]
  colony formation units: suppress clonogenic progenitors; also recorded: inhibition of the colony formation units
[5]
  apoptosis (expression of cleaved PARP): apoptosis in MOLM13 cells
[5]; listed as UR778B2
  apoptosis (expression of cleaved PARP): apoptosis in the four cell lines
